Where only a bound is given, the exact number is not on record here.

Common to all, as to assay type: in vivo
Experiment [1] has as its system mice. Nature of the experiment: Maximal ElectroShock (MES)-induced tonic seizure test. Particulars: Mus musculus; for ED50: read-out: Mice MES ED50 (mpk/peak time); for responders at 30 mg/kg: read-out: Mice MES Protection % (mpk/peak time). The method, then: The “Maximal ElectroShock (MES)” test is a well-established pharmacological screening method for anticonvulsants against tonic-clonic seizures. The procedure employed in the MES test for anticonvulsants is as follows. The compounds to be tested were dissolved in 30% PEG400 and administered ip and po into animals. After the designated number of hours, maximal electroshock (50 mA, 60 Hz, 0.2 sec) was applied into animals via corneal electrodes using IITC Life Science model 11A Shocker. […] Median efficacy dose (ED50) levels were determined using three different dose levels with at least 8 mice in each group.
(In general: The maximal electroshock test induces tonic seizures with an electrical stimulus.)

Experiment [2] has as its system mice. Put plainly: Forced swimming test (FST). Conditions: 30 min after dosing. As to the method: The “Forced swimming test (FST)” for antidepressant activity was also carried out. The procedure employed in the FST for antidepressant is as follows. The compounds to be tested were dissolved in 30% PEG400 and administered ip and po into animals. 30 min later, the immobility time during post 4 minutes of 6 minutes experiment time was measured.

Experiment [3] has as its system mice. Nature of the experiment: Pentylenetetrazol (PTZ)-induced clonic seizure test. Conditions: Mus musculus; for responders at 30 mg/kg: read-out: Mice PTZ Protection % (mpk/peak time). As to the method: The “Pentylenetetrazol (PTZ)” test for anticonvulsant and antianxiety activity was also carried out.
The procedure employed in the PTZ test is as follows. The compounds to be tested were dissolved in 30% PEG400 and administered ip and po into animals. After the designated number of hours, each animal was injected subcutaneously with 100 mg/kg of PTZ (CD97 dose) and observed for up to 30 minutes for the presence or absence of clonic spasms over 5 seconds. Median efficacy dose (ED50) levels were determined using three different dose levels with 8 mice in each group.

Setting [4] is: 3 mice, 30 mpk, 0.5, 1, 2, 4 hr.

`NC(=O)OC(Cn1ncnn1)c1ccc(Cl)cc1` (stereo not shown) [Example 5, Carbamic acid 1-(4-chloro-phenyl)-2-tetrazol-2-yl-ethyl ester]: the ED50 in experiment [1] (0.5 h) is 18.4 mg/kg. The “Mice FST Reduction of immobility %” value in experiment [2] (dose not given) is on record as 71.7%.
For `NC(=O)OC(Cn1nccn1)c1ccc(Cl)cc1` (stereo not shown) [Example 10, Carbamic acid 1-(4-chloro-phenyl)-2-[1,2,3]triazol-2-yl-ethyl ester] the same measures were 21.3 mg/kg and 45.1%.
On to `NC(=O)OC(Cn1nccn1)c1ccccc1C(F)(F)F` (stereo not shown) [Example 39, Carbamic acid 2-[1,2,3]triazol-2-yl-1-(2-trifluoromethyl-phenyl)-ethyl ester], for which, in experiment [1] (0.5 h), the ED50 came out at 12.5 mg/kg.
Take `NC(=O)O[C@@H](Cn1ncnn1)c1ccc(Cl)cc1` [Example 42, Carbamic acid (R)-1-(4-chloro-phenyl)-2-tetrazol-2-yl-ethyl ester]: the ED50 in experiment [1] (0.5 h) is 18.2 mg/kg. Also, the “Mice FST Reduction of immobility %” value in experiment [2] (dose not given) stood at 44.1%.
In the same order, the values of `NC(=O)O[C@@H](Cn1nccn1)c1ccc(Cl)c(Cl)c1` [Example 91, Carbamic acid (R)-1-(3,4-dichloro-phenyl)-2-[1,2,3]triazol-2-yl-ethyl ester] are 16 mg/kg and 94.0%.
Consider `NC(=O)OC(Cc1ccccc1)Cn1ncnn1` (stereo not shown) [Example 116, Carbamic acid 2-phenyl-1-tetrazol-2-ylmethyl-ethyl ester], for which the responders at 30 mg/kg in experiment [1] (1 h) is 100%; in experiment [3] (2 h) it was 33.3%. Further, in experiment [2] (dose not given), the “Mice FST Reduction of immobility %” value amounted to 30.0%.
`O=C(OC(Cn1ncnn1)c1ccccc1Cl)N1CCC(Cc2ccc(Cl)c(Cl)c2)CC1` (stereo not shown) [Example 175, 4-(3,4-Dichloro-benzyl)-piperidine-1-carboxylic acid 1-(2-chloro-phenyl)-2-tetrazol-2-yl-ethyl ester]: the ED50 in experiment [1] (0.5 h) was 20.2 mg/kg. Besides, the responders at 30 mg/kg in experiment [3] (4 h) is 66.7%. Moreover, in experiment [2], the “Mice FST Reduction of immobility %” value is “N.S”.
For `O=C(OC(Cn1ncnn1)c1ccccc1Cl)N1CCC(CCc2ccccc2)C1` (stereo not shown) [Example 181, 3-Phenethyl-pyrrolidine-1-carboxylic acid 1-(2-chloro-phenyl)-2-tetrazol-2-yl-ethyl ester], in experiment [1] (0.5 h), the ED50 turned out to be 12.1 mg/kg. Also, the responders at 30 mg/kg in experiment [3] (4 h) was determined as 33.3%. The “Mice FST Reduction of immobility %” value in experiment [2] (dose not given) is reported as 30.6%.
Consider `O=C(OC(Cn1ncnn1)c1cc(Cl)ccc1Cl)N1CCC(Cc2ccc(Cl)c(Cl)c2)CC1` (stereo not shown) [Example 191, 4-(3,4-Dichloro-benzyl)-piperidine-1-carboxylic acid 1-(2,5-dichloro-phenyl)-2-tetrazol-2-yl-ethyl ester], for which the responders at 30 mg/kg in experiment [1] (4 h) worked out at 66.7%. In addition, in experiment [3] (sc, read-out: Mice PTZ ED50 (mpk/peak time)), the ED50 was > 30 mg/kg. For the same molecule, in experiment [2] (dose not given), the “Mice FST Reduction of immobility %” value was 50.6%.
In the case of `O=C(OC(Cn1ncnn1)c1ccc(Cl)cc1Cl)N1CCC(Cc2ccc(Cl)c(Cl)c2)CC1` (stereo not shown) [Example 194, 4-(3,4-Dichloro-benzyl)-piperidine-1-carboxylic acid 1-(2,4-dichloro-phenyl)-2-tetrazol-2-yl-ethyl ester], the ED50 in experiment [1] (0.5 h) came to 11.9 mg/kg. Besides, the responders at 30 mg/kg in experiment [3] (2 h) was found to be 33.3%. Moreover, the “Mice FST Reduction of immobility %” value in experiment [2] (dose not given) stood at 53.4%.
Regarding `O=C(OC(Cn1ncnn1)c1ccc(Cl)c(Cl)c1)N1CCC(Cc2ccc(Cl)c(Cl)c2)CC1` (stereo not shown) [Example 195, 4-(3,4-Dichloro-benzyl)-piperidine-1-carboxylic acid 1-(3,4-dichloro-phenyl)-2-tetrazol-2-yl-ethyl ester], the ED50 in experiment [1] (mice, peak time 0.5 hr) was 15.3 mg/kg. Also, the responders at 30 mg/kg in experiment [3] (3 mice, 30 mpk, 0.5, 1 hr) came to 33.3%. Moreover, in experiment [2] (dose not given), the “Mice FST Reduction of immobility %” value amounted to 31.9%.
Regarding `O=C(OC(Cn1ncnn1)c1ccccc1Cl)N1CCC(Cc2ccc(Cl)cc2)C1` (stereo not shown) [Example 196, 3-(4-Chloro-benzyl)-pyrrolidine-1-carboxylic acid 1-(2-chloro-phenyl)-2-tetrazol-2-yl-ethyl ester], the ED50 in experiment [1] (0.5 h) turned out to be 15.3 mg/kg. Further, in experiment [3] (4 h), the responders at 30 mg/kg was found to be 33.3%. Also, the “Mice FST Reduction of immobility %” value in experiment [2] was “N.S”.
For `O=C(OC(Cn1ncnn1)c1ccccc1Cl)N1CCC(Cc2cc(C(F)(F)F)cc(C(F)(F)F)c2)CC1` (stereo not shown) [Example 197, 4-(3,5-Bis-trifluoromethyl-benzyl)-piperidine-1-carboxylic acid 1-(2-chloro-phenyl)-2-tetrazol-2-yl-ethyl ester] the same measures were 6.3 mg/kg, 100% and “N.S”.
Take `O=C(OC(Cn1nccn1)c1ccccc1Cl)N1CCC(Cc2ccc(Cl)c(Cl)c2)CC1` (stereo not shown) [Example 200, 4-(3,4-Dichloro-benzyl)-piperidine-1-carboxylic acid 1-(2-chloro-phenyl)-2-[1,2,3]triazol-2-yl-ethyl ester]: the responders at 30 mg/kg in experiment [1] (3 mice, 30 mpk, 0.5, 4 hr) is 100%. Moreover, the “Mice FST Reduction of immobility %” value in experiment [2] (dose not given) was 25.9%.
For the molecule `O=C(OC(Cn1cnnn1)c1ccccc1Cl)N1CCC(Cc2ccc(Cl)c(Cl)c2)CC1` (stereo not shown) [Example 201, 4-(3,4-Dichloro-benzyl)-piperidine-1-carboxylic acid 1-(2-chloro-phenyl)-2-tetrazol-1-yl-ethyl ester], in experiment [1] (3 mice, 30 mpk, 1, 2, 4 hr), the responders at 30 mg/kg was determined as 100%. Also, the “Mice FST Reduction of immobility %” value in experiment [2] (dose not given) came to 54.0%.
Turning to `O=C(OC(Cn1ncnn1)c1cc(Cl)ccc1Cl)N1CCC(CCc2ccccc2)C1` (stereo not shown) [Example 202, 3-Phenethyl-pyrrolidine-1-carboxylic acid 1-(2,5-dichloro-phenyl)-2-tetrazol-2-yl-ethyl ester], the ED50 in experiment [1] (mice, peak time 0.5 hr) was determined as 11.4 mg/kg. Besides, the responders at 30 mg/kg in experiment [3] (3 mice, 30 mpk, 1, 4 hr) was 33.3%. Moreover, the “Mice FST Reduction of immobility %” value in experiment [2] (dose not given) is given as 81.2%.
With `O=C(OC(Cn1ncnn1)c1ccc(Cl)cc1Cl)N1CCC(CCc2ccccc2)C1` (stereo not shown) [Example 203, 3-Phenethyl-pyrrolidine-1-carboxylic acid 1-(2,4-dichloro-phenyl)-2-tetrazol-2-yl-ethyl ester], the responders at 30 mg/kg in experiment [1] (setting [4]) was 100%. Further, the “Mice FST Reduction of immobility %” value in experiment [2] (dose not given) turned out to be 44.0%.
As for `O=C(OC(Cn1ncnn1)c1ccc(Cl)c(Cl)c1)N1CCC(CCc2ccccc2)C1` (stereo not shown) [Example 204, 3-Phenethyl-pyrrolidine-1-carboxylic acid 1-(3,4-dichloro-phenyl)-2-tetrazol-2-yl-ethyl ester], the responders at 30 mg/kg in experiment [1] (3 mice, 30 mpk, 0.5, 1, 2 hr) came out at 100%. The “Mice FST Reduction of immobility %” value in experiment [2] (dose not given) was 51.2%.
For `O=C(OC(COc1ccc(Cl)cc1Cl)Cn1nccn1)N1CCC(CCc2ccccc2)C1` (stereo not shown) [Example 206, 3-Phenethyl-pyrrolidine-1-carboxylic acid 2-(2,4-dichloro-phenoxy)-1-[1,2,3]triazol-2-ylmethyl-ethyl ester], the responders at 30 mg/kg in experiment [1] (setting [4]) amounted to 100%; in experiment [3] (3 mice, 30 mpk, 2, 4 hr) it was 66.7%. In experiment [2] (dose not given), the “Mice FST Reduction of immobility %” value turned out to be 51.4%.
Regarding `O=C(OC(COc1ccc(Cl)c(Cl)c1)Cn1nccn1)N1CCC(CCc2ccccc2)C1` (stereo not shown) [Example 207, 3-Phenethyl-pyrrolidine-1-carboxylic acid 2-(3,4-dichloro-phenoxy)-1-[1,2,3]triazol-2-ylmethyl-ethyl ester], the responders at 30 mg/kg in experiment [1] (3 mice, 30 mpk, 0.5, 1, 4 hr) stood at 100%. The “Mice FST Reduction of immobility %” value in experiment [2] (dose not given) turned out to be 43.4%.
Consider `O=C(OC(COc1cc(Cl)ccc1Cl)Cn1ncnn1)N1CCC(CCc2ccccc2)C1` (stereo not shown) [Example 208, 3-Phenethyl-pyrrolidine-1-carboxylic acid 2-(2,5-dichloro-phenoxy)-1-tetrazol-2-ylmethyl-ethyl ester], for which the responders at 30 mg/kg in experiment [1] (3 mice, 30 mpk, 0.5, 1, 4 hr) was 100%; in experiment [3] (3 mice, 30 mpk, 4 hr) it was 33.3%. For the same molecule, the “Mice FST Reduction of immobility %” value in experiment [2] (dose not given) was 48.2%.

These data come from patent publication US7598279B2, “Neurotherapeutic azole compounds” (SK Holdings Co., Ltd., priority 2005, dated 2009).
